# Reference: patent US20010011143A1, “Process for preparing phenoxyphenylsulfonyl halides” (priority 1998, published 2001)
smiles,measurement,value
"O=S(=O)(Oc1ccc(F)cc1)c1ccc(Oc2ccc(F)cc2)cc1 [Example 1, 4-(4-Fluorophenoxy)benzenesulfonic Acid 4-Fluorophenyl Ester]",melting point,78 to 83 °C
